Experimental data: ChEMBL document CHEMBL1126953, “Quinoxaline N-oxide containing potent angiotensin II receptor antagonists: synthesis, biological properties, and structure-activity relationships” (J Med Chem, 1993)

Key:
[1] = biological target: Angiotensin II receptor type 1 (Oryctolagus cuniculus) (UniProt P34976); assay: Antagonism of angiotensin II induced contraction of isolated rabbit aorta
[2] = biological target: T1, Angiotensin II receptor (AT-1) type-1 (Rattus norvegicus, UniProt P29089+P25095); assay: Binding affinity for Angiotensin II receptor, type 1 in rat adrenal cortical membranes using [125I]Sar1, Ile8-angiotensin II; assay type: cell membranes
T1 sequence (P29089 whole entry): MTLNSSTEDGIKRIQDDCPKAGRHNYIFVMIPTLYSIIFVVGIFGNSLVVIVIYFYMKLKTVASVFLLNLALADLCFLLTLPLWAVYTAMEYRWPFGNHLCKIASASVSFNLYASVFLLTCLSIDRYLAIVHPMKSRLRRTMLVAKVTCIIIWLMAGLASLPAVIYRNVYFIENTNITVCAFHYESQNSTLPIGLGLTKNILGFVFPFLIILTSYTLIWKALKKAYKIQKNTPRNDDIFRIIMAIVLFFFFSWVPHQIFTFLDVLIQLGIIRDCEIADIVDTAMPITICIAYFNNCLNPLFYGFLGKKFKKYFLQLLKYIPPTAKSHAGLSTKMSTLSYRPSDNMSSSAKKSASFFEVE
T1 sequence (P25095 whole entry): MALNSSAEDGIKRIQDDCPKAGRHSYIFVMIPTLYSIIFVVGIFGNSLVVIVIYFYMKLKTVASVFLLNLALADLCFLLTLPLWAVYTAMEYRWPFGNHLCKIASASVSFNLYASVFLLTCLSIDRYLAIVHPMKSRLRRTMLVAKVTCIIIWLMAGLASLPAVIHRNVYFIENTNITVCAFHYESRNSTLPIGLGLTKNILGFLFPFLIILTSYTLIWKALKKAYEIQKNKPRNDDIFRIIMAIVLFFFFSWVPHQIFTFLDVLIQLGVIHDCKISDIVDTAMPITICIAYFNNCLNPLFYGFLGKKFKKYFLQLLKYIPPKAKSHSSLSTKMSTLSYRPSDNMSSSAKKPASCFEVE

[3] = biological target: T1, Angiotensin II receptor (AT-1) type-1; assay: Binding affinity of compound in presence of bovine serum albumin (BSA) at 0% against rat adrenal Angiotensin II receptor, type 1; assay type: cell-free
[4] = biological target: T1, Angiotensin II receptor (AT-1) type-1; assay: Binding affinity of compound in presence of bovine serum albumin (BSA) at 0.01% against rat adrenal Angiotensin II receptor, type 1; assay type: cell-free
[5] = biological target: T1, Angiotensin II receptor (AT-1) type-1; assay: Binding affinity of compound in presence of bovine serum albumin (BSA) at 0% against rat Angiotensin II receptor, type 1; assay type: cell-free
[6] = biological target: T1, Angiotensin II receptor (AT-1) type-1; assay: Binding affinity of compound in presence of bovine serum albumin (BSA) at 0.01% against rat Angiotensin II receptor, type 1; assay type: cell-free
[7] = biological target: T1, Angiotensin II receptor (AT-1) type-1; assay: Binding affinity of compound in presence of bovine serum albumin (BSA) at 0.22% against rat adrenal Angiotensin II receptor, type 1; assay type: cell-free

Angiotensin II receptor type 1 (Oryctolagus cuniculus), sequence (P34976 whole entry, looked up): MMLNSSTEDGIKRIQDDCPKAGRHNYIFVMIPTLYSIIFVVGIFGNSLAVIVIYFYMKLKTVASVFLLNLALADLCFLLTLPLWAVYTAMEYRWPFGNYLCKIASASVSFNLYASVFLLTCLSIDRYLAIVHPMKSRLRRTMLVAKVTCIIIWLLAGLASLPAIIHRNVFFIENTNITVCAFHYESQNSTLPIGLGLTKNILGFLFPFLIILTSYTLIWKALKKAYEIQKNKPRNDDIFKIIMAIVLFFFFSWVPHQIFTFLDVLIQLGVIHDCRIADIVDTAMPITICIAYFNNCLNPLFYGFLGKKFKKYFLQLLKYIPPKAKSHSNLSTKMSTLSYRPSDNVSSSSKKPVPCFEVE

Kb [1] [nM] | Ki [2] [nM] | Compound | further results
0.026 | 1.3 | CCCCc1c(Oc2ccc(-c3ccccc3-c3nn[nH]n3)cc2)nc2c(C(=O)O)c(OCC)ccc2[n+]1[O-] | Ki [3]: 0.4 nM; Ki [4]: 1.3 nM
0.19 | 68 | CCCCc1c(Oc2ccc(-c3ccccc3-c3nn[nH]n3)cc2)nc2c(C(=O)O)c(OCCC)ccc2[n+]1[O-] | 
0.27 | 50 | CCCCOc1ccc2c(nc(Oc3ccc(-c4ccccc4-c4nn[nH]n4)cc3)c(CCCC)[n+]2[O-])c1C(=O)O | 
0.25 | 7.4 | CCCCc1c(Oc2ccc(-c3ccccc3-c3nn[nH]n3)cc2)nc2c(C(=O)O)c(N)ccc2[n+]1[O-] | 
0.13 | 17 | CCCCc1c(Oc2ccc(-c3ccccc3-c3nn[nH]n3)cc2)nc2c(C(=O)O)c(OC)ccc2[n+]1[O-] | 
2 | 22 | CCCCc1c(Oc2ccc(-c3ccccc3-c3nn[nH]n3)cc2)nc2c(C(=O)O)c(OCC(F)(F)F)ccc2[n+]1[O-] | 
0.58 | 9 | CCCCc1c(Oc2ccc(-c3ccccc3-c3nn[nH]n3)cc2)nc2c(C(=O)O)c(F)ccc2[n+]1[O-] | 
 | 28 | CCCCc1c(Oc2ccc(-c3ccccc3-c3nn[nH]n3)cc2)nc2c(C(=O)O)c(OC(C)C)ccc2[n+]1[O-] | 

The remaining lines, values behind:

Compound | Kb [1] [nM] | Ki [2] [nM] | further results
Cc1nc2ccccc2nc1Oc1ccc(-c2ccccc2-c2nn[nH]n2)cc1 | 2300 |  | 
CCCCc1nc2ccc(OCC)c(C(=O)O)c2nc1Oc1ccc(-c2ccccc2-c2nn[nH]n2)cc1 | 0.12 | 44 | 
CCCCc1nc2cccc(C(=O)O)c2nc1Oc1ccc(-c2ccccc2-c2nn[nH]n2)cc1 | 2.1 | 46 | Ki [5]: 5.5 nM; Ki [6]: 46 nM
CCCCc1c(Oc2ccc(-c3ccccc3-c3nn[nH]n3)cc2)nc2ccccc2[n+]1[O-] | 230 | 71 | Ki [7]: 580 nM; Ki [4]: 71 nM
CCCCc1nc2ccccc2[n+]([O-])c1Oc1ccc(-c2ccccc2-c2nn[nH]n2)cc1 | 0.44 | 4.5 | 
CCCCc1nc2ccccc2nc1Oc1ccc(-c2ccccc2-c2nn[nH]n2)cc1 | 290 | 137 | Ki [7]: 2200 nM
CCCc1nc2cccc(C(=O)O)c2nc1Oc1ccc(-c2ccccc2-c2nn[nH]n2)cc1 | 13 | 190 | 
CCCCc1c(Oc2ccc(-c3ccccc3-c3nn[nH]n3)cc2)nc2c(C(=O)O)cccc2[n+]1[O-] | 0.5 |  | 
CCCCc1nc2ccc(F)c(C(=O)O)c2nc1Oc1ccc(-c2ccccc2-c2nn[nH]n2)cc1 | 0.97 | 21 | 
Cc1c(Oc2ccc(-c3ccccc3-c3nn[nH]n3)cc2)nc2ccccc2[n+]1[O-] | 480 | 550 | Ki [7]: 24400 nM; Ki [4]: 550 nM
